Assay [1] addresses T1, Asparagine synthetase [glutamine-hydrolyzing] (Rattus norvegicus) (UniProt P49088).
T1 sequence (whole entry): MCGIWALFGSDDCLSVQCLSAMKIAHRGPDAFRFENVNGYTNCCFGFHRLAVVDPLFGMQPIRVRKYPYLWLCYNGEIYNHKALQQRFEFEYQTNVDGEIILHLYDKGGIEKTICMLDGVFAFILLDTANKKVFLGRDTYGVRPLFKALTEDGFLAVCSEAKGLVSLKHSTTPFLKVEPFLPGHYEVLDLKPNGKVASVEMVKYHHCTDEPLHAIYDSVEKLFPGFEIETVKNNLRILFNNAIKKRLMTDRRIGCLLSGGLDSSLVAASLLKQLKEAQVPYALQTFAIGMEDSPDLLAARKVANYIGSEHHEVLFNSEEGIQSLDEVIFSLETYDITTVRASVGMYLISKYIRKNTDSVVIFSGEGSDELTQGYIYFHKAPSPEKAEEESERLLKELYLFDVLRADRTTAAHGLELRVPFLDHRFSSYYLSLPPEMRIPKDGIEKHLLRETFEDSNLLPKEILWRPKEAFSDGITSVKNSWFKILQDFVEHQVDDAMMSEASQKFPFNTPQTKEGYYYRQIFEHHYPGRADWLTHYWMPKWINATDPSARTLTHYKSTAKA
The assay can be described thus: Inhibition of asparagine synthetase from partially purified rat Novikoff hepatoma at a final concentration of 2 mM.

In assay [2] the test system is TsH1. Nature of the assay: Compound was evaluated for the growth inhibition of TsH1 cells in an enriched eagles minimal essential medium, medium lacking aspartic acid at a concentration of 0.01 mg/mL (0.03 mM); Heavy growth. It is filed as functional, cell-based. The note with it: Cricetulus griseus.
Assay [3] concerns TsH1. The assay can be described thus: Compound was evaluated for the growth inhibition of TsH1 cells in an enriched eagles minimal essential medium, medium lacking aspartic acid and asparagine at a concentration of 0.01 mg/mL (0.03 mM); Medium growth. It counts as functional, cell-based. To be noted: Cricetulus griseus.
Assay [4] concerns TsH1. Nature of the assay: Compound was evaluated for the growth inhibition of TsH1 cells in an enriched eagles minimal essential medium, complete medium at a concentration of 0.2 mg/mL (0.65 mM); Light growth. It counts as functional, cell-based. The note with it: Cricetulus griseus.
The test system of assay [5] is TsH1. Nature of the assay: Compound was evaluated for the growth inhibition of TsH1 cells in an enriched eagles minimal essential medium, medium lacking aspartic acid at a concentration of 0.2 mg/mL (0.65 mM); Light growth. It is filed as functional, cell-based. The note with it: Cricetulus griseus.
Assay [6] relates to TsH1. The assay can be described thus: Compound was evaluated for the growth inhibition of TsH1 cells in an enriched eagles minimal essential medium, medium lacking aspartic acid at a concentration of 0.04 mg/mL (0.13 mM); Heavy growth. It counts as functional, cell-based. To be noted: Cricetulus griseus.
Assay [7] concerns TsH1. The assay can be described thus: Compound was evaluated for the growth inhibition of TsH1 cells in an enriched eagles minimal essential medium, medium lacking aspartic acid at a concentration of 1.0 mg/mL (3.27 mM); Cells dead. It is filed as functional, cell-based. The note with it: Cricetulus griseus.
For assay [8], the system named is TsH1. Nature of the assay: Compound was evaluated for the growth inhibition of TsH1 cells in an enriched eagles minimal essential medium, medium lacking asparagine at a concentration of 0.2 mg/mL (0.65 mM); Cells dead. It is filed as functional, cell-based. To be noted: Cricetulus griseus.
The target of assay [9] is T1, Asparagine synthetase [glutamine-hydrolyzing] (Rattus norvegicus). The assay can be described thus: Inhibition of asparagine synthetase from partially purified rat Novikoff hepatoma at a final concentration of 1 mM.
The test system of assay [10] is TsH1. The assay can be described thus: Compound was evaluated for the growth inhibition of TsH1 cells in an enriched eagles minimal essential medium, medium lacking asparagine at a concentration of 0.04 mg/mL (0.13 mM); Heavy growth. It counts as functional, cell-based. To be noted: Cricetulus griseus.
Assay [11] concerns TsH1. Nature of the assay: Compound was evaluated for the growth inhibition of TsH1 cells in an enriched eagles minimal essential medium, medium lacking aspartic acid and asparagine at a concentration of 0.04 mg/mL (0.13 mM); Heavy growth. It counts as functional, cell-based. The note with it: Cricetulus griseus.
Assay [12] concerns TsH1. The assay can be described thus: Compound was evaluated for the growth inhibition of TsH1 cells in an enriched eagles minimal essential medium, medium lacking asparagine at a concentration of 0.01 mg/mL (0.03 mM); Heavy growth. It counts as functional, cell-based. The note with it: Cricetulus griseus.
In assay [13] the test system is TsH1. The assay can be described thus: Compound was evaluated for the growth inhibition of TsH1 cells in an enriched eagles minimal essential medium, complete medium at a concentration of 1.0 mg/mL (3.27 mM); Cells dead. It counts as functional, cell-based. The note with it: Cricetulus griseus.
Assay [14] deals with TsH1. Nature of the assay: Compound was evaluated for the growth inhibition of TsH1 cells in an enriched eagles minimal essential medium, medium lacking aspartic acid and asparagine at a concentration of 1.0 mg/mL (3.27 mM); Cells dead. It counts as functional, cell-based. The note with it: Cricetulus griseus.
Assay [15] has as its system TsH1. Nature of the assay: Compound was evaluated for the growth inhibition of TsH1 cells in an enriched eagles minimal essential medium, medium lacking aspartic acid and asparagine at a concentration of 0.2 mg/mL (0.65 mM); Cells dead. It is filed as functional, cell-based. To be noted: Cricetulus griseus.
Assay [16] has as its system TsH1. Nature of the assay: Compound was evaluated for the growth inhibition of TsH1 cells in an enriched eagles minimal essential medium, medium lacking asparagine at a concentration of 1.0 mg/mL (3.27 mM); Cells dead. It counts as functional, cell-based. To be noted: Cricetulus griseus.
In assay [17] the test system is TsH1. Nature of the assay: Compound was evaluated for the growth inhibition of TsH1 cells in an enriched eagles minimal essential medium, complete medium at a concentration of 0.04 mg/mL (0.13 mM); Heavy growth. It counts as functional, cell-based. The note with it: Cricetulus griseus.
Assay [18] deals with TsH1. Nature of the assay: Compound was evaluated for the growth inhibition of TsH1 cells in an enriched eagles minimal essential medium, complete medium at a concentration of 0.01 mg/mL (0.03 mM); Heavy growth. It is filed as functional, cell-based. To be noted: Cricetulus griseus.

SMILES strings stand for the structures.

As for `CC(=O)NCC(N)C(=O)O` (centres undefined), in assay [1], the inhibition amounted to 0%.
With `NC(CNC(=O)CBr)C(=O)O` (centres undefined), the Growth inhibition result was “Heavy Growth” in assay [2]; “Medium Growth” in [3]; “Light growth” in [4]; “Light growth” in assay [5]; “Heavy Growth” in [6]; “Not toxic” in assay [7]. In addition, the Growth inhibition entry in assay [8] was “Not toxic”; in assay [10] it was “Heavy Growth”; in assay [11], “Heavy Growth”; in assay [12], “Heavy Growth”; in assay [13] it was “Not toxic”; in assay [14], “Not toxic”. For the same molecule, the Growth inhibition entry in assay [15] is “Not toxic”; in assay [16], “Not toxic”; in assay [17] it was “Heavy Growth”; in [18] it was “Heavy Growth”. Further, the inhibition in assay [9] was found to be 93%.
For `NCC(N)C(=O)O` (centres undefined), the inhibition in assay [1] was found to be 0%.

These data come from ChEMBL document CHEMBL1121869, “Potential inhibitors of L-asparagine biosynthesis. 5. Electrophilic amide analogues of (S)-2,3-diaminopropionic acid” (J Med Chem, 1981).
